Test results taken from patent US12421226B2, “Heteroaryl compounds as necrosis inhibitors, composition and method using the same” (Accro Bioscience (HK), priority 2019, dated 2025).

Tests used:
[1] = test system: L929 mouse skin fibroblast cells; assay: Necroptosis inhibition in L929 cell assay (TNF-α/z-VAD induced, cell viability by ATP levels); assay type: cell-based; conditions: 1 h pre-treatment with compound, then TNF-α 40 ng/mL + z-VAD 20 μM for 48 hours
Procedure: 2. Compounds Tested for Necroptosis Inhibition Activities in L929 Cell Assay
(§1) Mouse L929 mouse skin fibroblast cells were added to 96-well plates and then were pre-treated with 10 μM of the test compound for one hour. Then the cells were treated with TNF-α (40 ng/mL, lab-made) and z-VAD (capase inhibitor, from calbiochem) (20 μM) for 48 hours, and the viability of cells was quantified by detecting adenosine triphosphate (ATP) levels. DMSO pretreatment group was used as negative controls, Nec-1 (known necroptosis inhibitor, from Biomol) pretreatment group was used as positive controls.

HT29 cells = assay: Necroptosis inhibition in HT29 cell assay (TNF-α/Smac mimetic/z-VAD induced, cell viability); assay type: cell-based; conditions: then TNF-α 40 ng/mL + Smac mimetic 100 nM + z-VAD 20 μM for 48 hours
Procedure: 1. Compounds Tested for Necroptosis Inhibition Activities in HT29 Cell Assay
as §1, with “For this assay, HT29” for “Mouse L929 mouse skin fibroblast”, “tumor necrosis factor alpha (TNF-α, 40 ng/mL), Smacmimetic (cIAP inhibitor) (100 nM)” for “TNF-α (40 ng/mL, lab-made)”, “quantified.” for “quantified by detecting adenosine triphosphate (ATP) levels.”

[2] = Homo sapiens, HT-29, 1 h pre-treatment with compound

Structure (SMILES): O=C(Nc1cn2cc(-c3cnc4ccn(C(=O)OC5CCOCC5)c4c3)ccc2n1)C1CC1 [Compound C6, tetrahydropyran-4-yl 6-[2-(cyclopropanecarbonylamino)imidazo-[1,2-a]pyridin-6-yl]pyrrolo[3,2-b]pyridine-1-carboxylate]
- IC50 ([1]; Mus musculus): 50 nM
- IC50 (HT29 cells; [2]): 56 nM

Structure (SMILES): O=C(NC1CCOCC1)c1nsc2ncc(-c3ccc4nc(NC(=O)C5CC5)sc4c3)cc12 [Compound C14, 5-[2-(cyclopropanecarbonylamino)-1,3-benzothiazol-6-yl]-N-tetrahydropyran-4-yl-isothiazolo[5,4-b]pyridine-3-carboxamide]
- IC50 ([1]; Mus musculus): 1.3 nM
- IC50 (HT29 cells; [2]): 4.7 nM

Structure (SMILES): O=C(NC1CCOCC1)c1csc2ncc(-c3ccc4nc(NC(=O)C5CC5)sc4c3)cc12 [Compound C12, 5-[2-(cyclopropanecarbonylamino)-1,3-benzothiazol-6-yl]-N-tetrahydropyran-4-yl-thieno[2,3-b]pyridine-3-carboxamide]
- IC50 ([1]; Mus musculus): 1.5 nM
- IC50 (HT29 cells; [2]): 7.3 nM

Structure (SMILES): CN1C(=O)C(Cc2c[nH]c3ccccc23)NC1=S (stereo not shown) [Nec-1, reference compound]
- IC50 [1]: 1250 nM
- IC50 (HT29 cells; 1 h pre-treatment with compound): 300 nM

Structure (SMILES): O=C(Nc1nc2ccc(-c3cnc4ccn(C(=O)OC5CCC(F)(F)CC5)c4c3)cc2s1)C1CC1 [Compound C4, (4,4-difluorocyclohexyl) 6-[2-(cyclopropanecarbonylamino)-1,3-benzothiazol-6-yl]pyrrolo[3,2-b]pyridine-1-carboxylate]
- IC50 ([1]; Mus musculus): 3.2 nM
- IC50 (HT29 cells; [2]): 83 nM

Structure (SMILES): O=C(Nc1nc2ccc(-c3cnc4ccn(C(=O)CC5CCOCC5)c4c3)cc2s1)C1CC1 [Compound C8, N-[6-[1-(2-tetrahydropyran-4-ylacetyl)pyrrolo[3,2-b]pyridin-6-yl]-1,3-benzothiazol-2-yl]cyclopropanecarboxamide]
- IC50 ([1]; Mus musculus): 17 nM
- IC50 (HT29 cells; [2]): 440 nM

Structure (SMILES): O=C(Nc1nc2ccc(-c3cnc4ccn(C(=O)NC5CCCCC5)c4c3)cc2s1)C1CC1 [Compound C33, N-cyclohexyl-6-[2-(cyclopropanecarbonylamino)-1,3-benzothiazol-6-yl]pyrrolo[3,2-b]pyridine-1-carboxamide]
- IC50 ([1]; Mus musculus): 0.3 nM
- IC50 (HT29 cells; [2]): 4.6 nM

Structure (SMILES): O=C(Nc1nc2ccc(-c3cnc4ccn(C(=O)OC5CCOCC5)c4c3)nc2s1)C1CC1 [Compound C3, tetrahydropyran-4-yl 6-[2-(cyclopropanecarbonylamino)thiazolo[5,4-b]pyridin-5-yl]pyrrolo[3,2-b]pyridine-1-carboxylate]
- IC50 ([1]; Mus musculus): 72.8 nM
- IC50 (HT29 cells; [2]): 9.6 nM

Structure (SMILES): O=C(NC1CCC(F)(F)CC1)c1nsc2ncc(-c3ccc4nc(NC(=O)C5CC5)sc4c3)cc12 [Compound C30, 5-[2-(cyclopropanecarbonylamino)-1,3-benzothiazol-6-yl]-N-(4,4-difluorocyclohexyl)isothiazolo[5,4-b]pyridine-3-carboxamide]
- IC50 ([1]; Mus musculus): 0.8 nM
- IC50 (HT29 cells; [2]): 10 nM

Structure (SMILES): CN1CCC(NC(=O)c2nsc3ncc(-c4ccc5nc(NC(=O)C6CC6)sc5c4)cc23)CC1 [Compound C42, 5-(2-(cyclopropanecarboxamido)benzo[d]thiazol-6-yl)-N-(1-methylpiperidin-4-yl)isothiazolo[5,4-b]pyridine-3-carboxamide]
- IC50 ([1]; Mus musculus): 321 nM
- IC50 (HT29 cells; [2]): 3000 nM

Structure (SMILES): O=C(Nc1nc2ccc(-c3cnc4ccn(C(=O)OC5CCOCC5)c4c3)cc2s1)C1CC1 [Compound C5, tetrahydropyran-4-yl 6-[2-(cyclopropanecarbonylamino)-1,3-benzothiazol-6-yl]pyrrolo[3,2-b]pyridine-1-carboxylate]
- IC50 ([1]; Mus musculus): 17 nM
- IC50 (HT29 cells; [2]): 5.6 nM
